Results on seven compounds are retold here after article PMC3836681 (Journal of molecular biology, 2012).

Type in all cases: binding
The target in test [1] is T1, RPA0668 (Rhodopseudomonas palustris, UniProt G3XCQ4). In words: X-ray crystal structure […] Å. The note with it: SeMet protein, 5 mM sodium PHB in crystallization.
Another test addresses SMb20568 (Sinorhizobium meliloti, UniProt Q92TN0). Kind of test: fluorescence thermal shift. The note with it: 10 µM protein, 1000 µM ligand.
The target of test [2] is T2, RPD1586 (Rhodopseudomonas palustris, UniProt Q13AR6). In words: X-ray crystal structure […] Å. The conditions noted are these: SeMet protein.
For the next test, the target named is RPA4029 (Rhodopseudomonas palustris, UniProt Q6N2M1). Kind of test: fluorescence thermal shift. The conditions noted are these: 10 µM protein, 1000 µM ligand.
Another test deals with RPB1579 (Rhodopseudomonas palustris, UniProt Q2IZS1). Kind of test: fluorescence thermal shift. The note with it: 10 µM protein, 1000 µM ligand.
In a further test the target is Bll5953 (Bradyrhizobium diazoefficiens, UniProt Q89HN7). Kind of test: fluorescence thermal shift. The note with it: 10 µM protein, 1000 µM ligand.
Test [3] concerns the target T1, RPA0668. Kind of test: fluorescence thermal shift. The conditions noted are these: 10 µM protein, 1000 µM ligand.
Test [4] has as its target T1, RPA0668. In words: X-ray crystal structure […] Å. The conditions noted are these: SeMet protein, 5 mM sodium BEZ in crystallization.
For test [5], the target named is T2, RPD1586. In words: X-ray crystal structure […] Å. The note with it: SeMet protein, 5 mM sodium VLA in crystallization.

As to `O=C(O)c1ccc(O)cc1` [PHB, 4-hydroxybenzoate], on RPA0668 [1], the “X-ray crystal structure 1.40 Å; fluorescence thermal shift” value was “RPA0668 has been determined in complex with the two most preferred ligands BEZ and PHB”. In addition, the ΔTm result at SMb20568 was “equivalent thermal stabilization with 4-hydroxybenzoate (PHB) and DHB”. At RPD1586 [2], the “X-ray crystal structure 2.22 Å; fluorescence thermal shift” value was “RPD1586 protein from the Ic subgroup was crystallized with PHB, DHB, and VLA”.
As to `O=C(O)c1cccc(O)c1` [3-hydroxybenzoate], the ΔTm entry at SMb20568 was “increased protein stability of SMb20568 with 3-hydroxybenzoate or gallic acid”.
Take `O=C(O)c1ccc(O)c(O)c1` [DHB, 3,4-dihydroxybenzoate]: the ΔTm result is “the preferred ligands (DHB, VLA) are the same for each protein” at RPA4029; “equivalent thermal stabilization with 4-hydroxybenzoate (PHB) and DHB” at SMb20568; “the preferred ligands (DHB, VLA) are the same for each protein” on RPB1579; “the preferred ligands (DHB, VLA) are the same for each protein” on Bll5953.
On to `O=Cc1ccccc1` [benzaldehyde], for which the ΔTm result on RPA0668 [3] is given as “excellent thermal stabilization is observed for aromatic compounds with an aldehyde or carboxyl group”.
As for `O=C(O)c1ccccc1` [BEZ, benzoate], the “X-ray crystal structure 1.84 Å; fluorescence thermal shift” value on RPA0668 [4] is “RPA0668 has been determined in complex with the two most preferred ligands BEZ and PHB”.
Regarding `COc1cc(C(=O)O)ccc1O` [VLA, 4-hydroxy-3-methoxybenzoate], the ΔTm result at RPA4029 was “the preferred ligands (DHB, VLA) are the same for each protein”; on RPB1579, “the preferred ligands (DHB, VLA) are the same for each protein”; at Bll5953, “the preferred ligands (DHB, VLA) are the same for each protein”. For the same compound, the “X-ray crystal structure 1.86 Å; fluorescence thermal shift” value on RPD1586 [5] was “RPD1586 protein from the Ic subgroup was crystallized with PHB, DHB, and VLA”.
Take `O=C(O)c1cc(O)c(O)c(O)c1` [gallic acid]: the ΔTm result on SMb20568 is recorded as “exhibits a greater ΔTm with gallic acid”.
